{
  "source": "patent US20030069271A1",
  "about": "“Quinolone compounds for use in treating viral infections” (priority 1999, published 2003)",
  "data": [
    {"system": "HIV", "assay": "Anti-HIV activity in MT4 cells (method of Averett, J. Virol. Methods 1989)", "type": "cell-based", "settings": "Human immunodeficiency virus 1, read-out: Activity Range (IC50)", "experimental": "(§1) The compounds of the present invention were tested for anti-HIV activity in MT4 cells according to the method described by Averett, D. R., J. Virol.", "units": {"IC50": "nM"}, "values": [
      {"smiles": "CCCc1c(OC2CCCCC2)c2cc(Cl)ccc2[nH]c1=O", "note": "[Example 1, 6-Chloro-4-(cyclohexyloxy)-3-propyl-2(1H)-quinolinone]", "IC50": "5 to 100"},
      {"smiles": "CCCc1c(OCC2CC2)c2cc(Cl)ccc2[nH]c1=O", "note": "[Example 3, 6-Chloro-4-(cyclopropylmethoxy)-3-propyl-2(1H)-quinolinone]", "IC50": "100 to 500"},
      {"smiles": "CCCc1c(OCC2CCCCC2)c2cc(Cl)ccc2[nH]c1=O", "note": "[Example 5, 6-Chloro-4(cyclohexylmethoxy)-3-propyl-2(1H)-quinolinone]", "IC50": "500 to 2000"},
      {"smiles": "CCCc1c(OCC2OCCO2)c2cc(Cl)ccc2[nH]c1=O", "note": "[Example 6, 6-Chloro-4-(1,3-dioxolan-2-ylmethoxy)-3-propyl-2(1H)-quinolinone]", "IC50": "500 to 2000"},
      {"smiles": "CC(C)c1c(OC2CCCCC2)c2cc(Cl)ccc2[nH]c1=O", "note": "[Example 9, 6-Chloro-4-(cyclohexyloxy)-3-isopropyl-2(1H)-quinolinone]", "IC50": "5 to 100"},
      {"smiles": "CCCc1c(OC2CCCC2)c2cc(C)ccc2[nH]c1=O", "note": "[Example 10, 4-Cyclopentyloxy-6-methyl-3-propyl-2(1H)-quinolinone]", "IC50": "500 to 2000"},
      {"smiles": "CCCc1c(OC2CCCCC2)c2cc(Cl)ccc2[nH]c1=S", "note": "[Example 20, 6-Chloro-4-(cyclohexyloxy)-3-propyl-2(1H)-quinolinethione]", "IC50": "5 to 100"},
      {"smiles": "CCCc1c([S+]([O-])C2CCCCC2)c2cc(Cl)ccc2[nH]c1=O", "note": "(centres unmarked) [Example 24, 6-Chloro-4-(cyclohexylsulfinyl)-3-propyl-2(1H)-quinolinone]", "IC50": "100 to 500"},
      {"smiles": "CCCc1c(OC#CC2CC2)c2cc(Cl)ccc2[nH]c1=O", "note": "[Example 35, 6-Chloro-4-[(2-cyclopropylethynyl)oxy]-3-propyl-2(1H)-quinolinone]", "IC50": "5 to 100"},
      {"smiles": "CC(C)c1c(OC#CC2CC2)c2cc(F)ccc2[nH]c1=O", "note": "[Example 36, 4-[(2-Cyclopropylethynyl)oxy]-6-fluoro-3-(isopropyl)-2(1H)-quinolinone]", "IC50": "5 to 100"},
      {"smiles": "CCCc1c(OC#CC2CC2)c2cc(F)ccc2[nH]c1=O", "note": "[Example 37, 4-[(2-Cyclopropylethynyl)oxy]-6-fluoro-3-propyl-2(1H)-quinolinone]", "IC50": "5 to 100"},
      {"smiles": "CCc1c(OC#CC2CC2)c2cc(F)ccc2[nH]c1=O", "note": "[Example 45, 4-[(2-Cyclopropylethynyl)oxy]-3-ethyl-6-fluoro-2(1H)-quinolinone]", "IC50": "5 to 100"},
      {"smiles": "CC(C)c1c(OC#CC2CC2)c2cc(Cl)ccc2[nH]c1=O", "note": "[Example 46, 6-Chloro-4-[(2-Cyclopropylethynyl)oxy]-3-isopropyl-2(1H)-quinolinone]", "IC50": "5 to 100"}
    ]},
    {"system": "HIV", "assay": "Anti-HIV activity in MT4 cells (method of Averett, J. Virol. Methods 1989)", "type": "cell-based", "settings": "read-out: Activity Range (IC50)", "experimental": "as §1", "units": {"IC50": "nM"}, "values": [
      {"smiles": "CC(C)Cc1c(OC#CC2CC2)c2cc(F)ccc2[nH]c1=O", "note": "[Example 47, 4-[(2-Cyclopropylethynyl)oxy]-6-fluoro-3-isobutyl-2(1,H)-quinolinone]", "IC50": "5 to 100"}
    ]}
  ]
}
